In patent publication US20240239823A1, “PHOSPHINATE ESTER-CONTAINING DYES HAVING TUNABLE PROPERTIES AND METHODS OF MAKING THE SAME” (University of Virginia Patent Foundation, priority 2021, published 2024):

Columns and labels:
[1] = Aggregation in aqueous solution (absorbance versus concentration, SDS addition); type: physicochemical; settings: for effect of surfactant on absorbance: addition of 0.1% SDS, water; for aggregation / H-aggregate formation (blue-shifted absorbance band): aqueous solutions; for aggregation / H-aggregate formation (blue-shifted absorbance band) / linearity of absorbance versus concentration: increasing concentrations; for linearity of absorbance versus concentration: in water
Source text: FIG. 2.2A: The structure of methylene blue (MB) and NR751.

[2] = Quenching of dye absorbance by glutathione (GSH); type: physicochemical; settings: absence versus presence of GSH
Source text: The absorbance of NR708 in the absence or presence of GSH is shown.
In order to improve the chemical stability of NR dyes to nucleophiles found in biological systems, such as glutathione (GSH), bulky substituents were introduced to protect the C9 position of the dyes from nucleophilic attack. Accordingly, derivatives of NR700 and NR666, termed NR708 and NR675, respectively, were synthesized that bear bulky substituents on the pendant phenyl ring proximal to the C9 position of the dye (FIG. 3.1). […] The improved chemical stability of these dyes will provide brighter probes for imaging applications.

RAW 264.7 cells = assay: Confocal imaging of RAW 264.7 cells with or without stimulation to produce endogenous HOCl; type: cell-based; settings: 50 μM; cells producing HOCl
Method: FIGS. 5.2A-5.2C show phosphinate-containing dyes as gated small molecule delivery vehicles for cytotoxic compounds in cells. FIG. 5.2A: The structure of NR—HOCl-1541B (left). Selective reaction with HOCl results in the gated release of 1541B, a cytotoxic compound, and a fluorescent NR dye (right) FIG. 5.2B: Viability of RAW 264.7 macrophages in the presence or absence of stimulation to produce endogenous HOCl (LPS and PMA), cells were incubated with 50 μM 1541B or NR—HOCl-1541B where indicated. FIG. 5.2C: Confocal imaging of RAW 264.7 cells incubated with 50 μM NR—HOCl-1541B in the presence or absence of stimulation to produce endogenous HOCl.

| Compound | effect of surfactant on absorbance [1] | aggregation / H-aggregate formation (blue-shifted absorbance band) [1] | linearity of absorbance versus concentration [1] | quenching / change of absorbance in the presence of glutathione (GSH) [2] | fluorescence and payload delivery in cells (RAW 264.7 cells) |
| --- | --- | --- | --- | --- | --- |
| CN(C)c1ccc2nc3ccc(=[N+](C)C)cc-3sc2c1 [MB, methylene blue, reference compound] | reduces the intensity of the blue-shifted H-Aggregate absorption band | increase in H-aggregate formation | clear deviation from linearity |  |  |
| COc1cccc(OC)c1C1=C2C=CC(=[N+](C)C)C=C2P(=O)(O)c2cc(N(C)C)ccc21 [NR675] |  |  |  | virtually no quenching |  |
| CC1=CC(=[N+](C)C)C=C2C1=Nc1c(C)cc(N(C)C)cc1P2(=O)O [NR751] | No change is observed in the absorbance | significantly reduced aggregation | clear linear increase in absorbance versus concentration |  |  |
| CN(C)c1ccc2c(c1)P(=O)(Oc1cccc3cc(C(=O)Nc4cccc(-c5cn6ccccc6n5)c4)c(=O)oc13)c1cc(N(C)C)ccc1C21SCc2ccccc21 (centres unmarked) [NR—HOCl-1541B] |  |  |  |  | Clear evidence of fluorescence, and payload delivery |
